Test results reported in patent US20040081972A1, “Novel physiologically active peptide and use thereof” (priority 2000, published 2004).

Tests used:
Format in all cases: cell-based
Details in all cases: final concentration 1 μmol/l
[1] = tested on: womb of an apoaequorin transgenic mouse; assay: Intracellular calcium (aequorin luminescence) in womb pieces of apoaequorin transgenic mouse
Procedure: (§1) In order to evaluate physiological activities of the peptides prepared in Example 1, the prepared peptides were allowed to act upon organs excised from the living body, and changes in the concentration of an intracellular signal transduction substance in cells constituting the organs were measured.
(§2) In order to measure changes in the concentration of an intracellular signal transduction substance in cells constituting the organs, a transgenic mouse prepared by integrated an apoaequorin gene expression vector into a chromosome was used. Specifically, a female mouse derived from the transgenic mouse disclosed in Reference Example 4 as an individual number 98075-04-6 was used in the test. […]
(§3) Aequorin is a bioluminescent protein complex which is present in the umbrella region of luminescent Aequorea victoria. Aequorin is constituted from its protein moiety apoaequorin, its luminescence substrate coelent razin and molecular oxygen, and emits light by its binding with calcium ion. […]
(§4) Organs were prepared from offsprings borne from the female of individual number 98075-04-6 to examine the activities of the peptides produced in Example 1. […] Five hours after, various substances shown below dissolved in RPMI 1640 medium were added at 200 μl, and the luminescence was measured just after the addition at 1 second intervals using a luminometer AutoLumat LB953 (manufactured by BERTHOLD).

[2] = tested on: adrenal gland of an apoaequorin transgenic mouse; assay: Intracellular calcium (aequorin luminescence) in adrenal gland pieces of apoaequorin transgenic mouse
Procedure: as §1, §2, §3, §4

[3] = tested on: blood vessel of an apoaequorin transgenic mouse; assay: Intracellular calcium (aequorin luminescence) in blood vessel pieces of apoaequorin transgenic mouse
Procedure: as §1
In order to measure changes in the concentration of an intracellular signal transduction substance in cells constituting the organs, a transgenic mouse prepared by integrated an apoaequorin gene expression vector into a chromosome was used. Specifically, a female mouse derived from the transgenic mouse disclosed in Reference Example 4 as an individual number 98075-04-6 was used in the test. The transgenic mouse was prepared and reared as an SPF animal in a clean room, and was not contaminated with pathogens including mouse hepatitis virus, Sendai virus, mycoplasma and Tyzzer bacterium.
Aequorin is a bioluminescent protein complex which is present in the umbrella region of luminescent Aequorea victoria. Aequorin is constituted from its protein moiety apoaequorin, its luminescence substrate coelent razin and molecular oxygen, and emits light by its binding with calcium ion. Since expression of the apoaequorin protein has been confirmed in at least thymus, spleen, abdominal muscle, diaphragm, kidney, crystalline lens, pancreas, fat tissue, liver, skull, blood vessel, ovary, womb and adrenal gland of the transgenic mouse used in the test, it was able to monitor changes in the intracellular calcium ion concentration in these organs with a high sensitivity.
Organs were prepared from offsprings borne from the female of individual number 98075-04-6 to examine the activities of the peptides produced in Example 1. After the offsprings were killed, the thymus, spleen, abdominal muscle, diaphragm, kidney, crystalline lens, pancreas, fat tissue, liver, skull, blood vessel, ovary, womb and adrenal gland were excised. Each of the excised organs was cut into small cubes of about 1 to 2 mm square in PBS containing 10 units/ml of heparin sodium and thoroughly washed by changing the solution. Next, three pieces of each of the organ samples thus prepared were put into a 5 ml capacity tube (Rohren-Tubes; No. 55.476, manufactured by Sarstedt) which had been charged with RPMI 1640 medium containing 200 μl of 10 μmol/l coelenterazine (manufactured by Molecular Probes), and cultured at 37° C. for 5 hours. Five hours after, various substances shown below dissolved in RPMI 1640 medium were added at 200 μl, and the luminescence was measured just after the addition at 1 second intervals using a luminometer AutoLumat LB953 (manufactured by BERTHOLD).

Measured: luminescence (intracellular calcium increase)

angiotensin II [purchased from Research Biochemicals International (product code: A-151)]
Strong luminescence: [1] | [2] | [3]
